Series [1] is described as follows: Half life of compound for dissociation in DETA and NO. Type of series: ADME.
The subject of series [2] is Ovis aries. Nature of the series: Intravenous dose of compound that lowered systemic arterial pressure (SAP) in ovine pulmonary hypertension model; Range is 0.8-13 nM/kg min. Type of series: functional, organism-based. To be noted: Artery.
Series [3] has as its system Ovis aries. The series can be described thus: Intravenous dose of compound that lowered pulmonary arterial pressure (PAP) in ovine pulmonary hypertension model; Range is 0.8-13 nM/kg min. To be noted: Artery. Type of series: functional, organism-based.
Series [4] has as its system Ovis aries. The series can be described thus: Intravenous dose of compound that lowered systemic arterial pressure following in ovine pulmonary hypertension model. In kind it is functional, Artery.
Series [5] can be described thus: Half life of compound for dissociation in proline and NO. In kind it is ADME.
For series [6], the system named is Ovis aries. Nature of the series: Pulmonary arterial pressure (PAP) in sheep on i.v. administration of 24 nM/ kg min. In kind it is functional, Artery.
Series [7] can be described thus: Rate constant of compound for dissociation in proline and NO. In kind it is ADME.
In series [8] the test system is Ovis aries. Nature of the series: Intravenous dose that lowered pulmonary arterial pressure withouteffect on systemic hemodynamics in sheep with drug-induced pulmonary hypertension. Type of series: functional, Artery.

By half-life is commonly meant the time needed for the level to fall by half in the phase considered. Low values mean rapid decline, high ones slow decline. Take `NCCN(CCN)/[N+]([O-])=N/O`: the half-life in series [1] was 20 h.

Take SODIUM NITROPRUSSIDE: the Dose (nM min-1 kg-1) in the series with Ovis aries [2] and with Ovis aries [3] was 13 each time.

In the case of `O=C([O-])[C@H]1CCCN1/[N+]([O-])=N/[O-].[Na+].[Na+]`, the Dose in the series on Ovis aries [4] worked out at 48 nM/min/kg; with Ovis aries [8], 24 nM/min/kg. The same compound came in with a T1/2 in series [5] of 1.8 s. Besides, the PAP in the series on Ovis aries [6] came out at 9 mmHg. For the same compound, the Rate constant in series [7] was 0.39 s⁻¹.

These data come from ChEMBL document CHEMBL1129376, “Localizing antithrombotic and vasodilatory activity with a novel, ultrafast nitric oxide donor” (J Med Chem, 1996).
